In patent US12084444B2, “Spiro-lactam NMDA modulators and methods of using same” (Tenacia Biotechnology (Hong Kong) Co., Limited, priority 2016, dated 2024):

Experiments:
[1] = target: T1, NMDAR2A expressing HEK cell membranes (Homo sapiens, UniProt Q05586+Q12879); test: NMDAR agonist assay, [3H]MK-801 binding, NMDAR2A; type: biochemical; set-up: key to NMDAR2A B: log EC50: 0=−; ≥1×10^−9 M (e.g., −8)=+; <1×10^−9 M (e.g., −10)=++; conditions: 50 μM glutamate; for EC50: read-out: NMDAR2A B: log EC50 (converted); for Emax: 0.25 h, read-out: NMDAR2A A: % maximal [3H]MK-801 binding relative to 1 mM glycine
T1 construct: expressed in transfected cells; host or cells: HEK cells (membrane extract)
Method: (§1) Assays were conducted as described by Moskal et al., “GLYX-13: a monoclonal antibody-derived peptide that acts as an N-methyl-D-aspartate receptor modulator,” Neuropharmacology, 49, 1077-87, 2005. These studies were designed to determine if the test compounds act to facilitate NMDAR activation in NMDAR2A, NMDAR2B, NMDAR2C or NMDAR2D expressing HEK cell membranes as measured by increases in [^3H]MK-801 binding.
(§2) In the assay, 300 μg of NMDAR expressing HEK cell membrane extract protein was preincubated for 15 minutes at 25° C. in the presence of saturating concentrations of glutamate (50 μM) and varying concentrations of test compound (1×10^−15 M-1×10^−7 M), or 1 mM glycine. Following the addition of 0.3 μCi of [^3H]MK-801 (22.5 Ci/mmol), reactions were again incubated for 15 minutes at 25° C. (nonequilibrium conditions). Bound and free [^3H]MK-801 were separated via rapid filtration using a Brandel apparatus.
(§3) In analyzing the data, the DPM (disintegrations per minute) of [^3H]MK-801 remaining on the filter were measured for each concentration of test compound or for 1 mM glycine. The DPM values for each concentration of a ligand (N=2) were averaged. The baseline value was determined from the best fit curve of the DPM values modeled using the GraphPad program and the log(agonist) vs. response(three parameters) algorithm was then subtracted from all points in the dataset. The % maximal [^3H]MK-801 binding was then calculated relative to that of 1 mM glycine: all baseline subtracted DPM values were divided by the average value for 1 mM glycine. The EC50 and % maximal activity were then obtained from the best fit curve of the % maximal [^3H]MK-801 binding data modelled using the GraphPad program and the log(agonist) vs. response(three parameters) algorithm.
(§4) The tables below summarize the results for the wild type NMDAR agonists NMDAR2A, NMDAR2B, NMDAR2C, and NMDAR2D, and whether the compound is not an agonist (−), is an agonist (+), or is a strong agonist (++), where column A is based on the % maximal [^3H]MK-801 binding relative to 1 mM glycine (−=0; <100%=+; and >100%=++); and column B is based on log EC50 values (0=−; ≥1×10^−9 M (e.g., −8)=+; and <1×10^−9 M (e.g., −10)=++).

[2] = target: T2, NMDAR2A expressing HEK cell membranes (Homo sapiens, UniProt Q12879); test: NMDAR agonist assay, [3H]MK-801 binding, NMDAR2A; type: biochemical; set-up: key to NMDAR2A B: log EC50: 0=−; ≥1×10^−9 M (e.g., −8)=+; <1×10^−9 M (e.g., −10)=++; conditions: 50 μM glutamate; for EC50: read-out: NMDAR2A B: log EC50 (converted)
T2 construct: expressed in transfected cells; host or cells: HEK cells (membrane extract)
Method: as §1, §2, §3, §4

[3] = target: T3, NMDAR2B expressing HEK cell membranes (Homo sapiens, UniProt Q13224); test: NMDAR agonist assay, [3H]MK-801 binding, NMDAR2B; type: biochemical; set-up: key to NMDAR2B B: log EC50: 0=−; ≥1×10^−9 M (e.g., −8)=+; <1×10^−9 M (e.g., −10)=++; conditions: 50 μM glutamate; for EC50: read-out: NMDAR2B B: log EC50 (converted)
T3 construct: expressed in transfected cells; host or cells: HEK cells (membrane extract)
Method: as §1, §2, §3, §4

[4] = Oral pharmacokinetics (plasma, brain, CSF); type: in vivo, Sprague Dawley rats; conditions: rat, per os, 10 mg/kg; for AUC(0-t) / bioavailability / Tmax / Cmax: Sprague Dawley, plasma, po; for Tmax: normal saline
Method: In another experiment, Sprague Dawley rats were dosed per os using a normal saline formulation containing 10 mg/kg of the compounds identified in the table below. Plasma, brain, and CSF samples were analyzed at various time points over a 24 hour period. The table below summarizes the results of the oral pharmacokinetics.

[5] = target: T4, NMDAR2B expressing HEK cell membranes (Homo sapiens, UniProt Q05586+Q13224); test: NMDAR agonist assay, [3H]MK-801 binding, NMDAR2B; type: biochemical; set-up: key to NMDAR2B B: log EC50: 0=−; ≥1×10^−9 M (e.g., −8)=+; <1×10^−9 M (e.g., −10)=++; conditions: 50 μM glutamate; for EC50: read-out: NMDAR2B B: log EC50 (converted); for Emax: 0.25 h, read-out: NMDAR2B A: % maximal [3H]MK-801 binding relative to 1 mM glycine
T4 construct: expressed in transfected cells; host or cells: HEK cells (membrane extract)
Method: as §1, §2, §3, §4

IV pharmacokinetics = test: IV pharmacokinetics; set-up: species or system Sprague Dawley rats; conditions: Sprague Dawley, in vivo, rat, 2 mg/kg, normal saline; for Vd: read-out: Vss
Method: Sprague Dawley rats were dosed intravenously using a normal saline formulation containing 2 mg/kg of the compounds identified in the below table. The table below summarizes the results of the IV pharmacokinetics.

T4 sequence (Q13224 27-1484, other chains not shown): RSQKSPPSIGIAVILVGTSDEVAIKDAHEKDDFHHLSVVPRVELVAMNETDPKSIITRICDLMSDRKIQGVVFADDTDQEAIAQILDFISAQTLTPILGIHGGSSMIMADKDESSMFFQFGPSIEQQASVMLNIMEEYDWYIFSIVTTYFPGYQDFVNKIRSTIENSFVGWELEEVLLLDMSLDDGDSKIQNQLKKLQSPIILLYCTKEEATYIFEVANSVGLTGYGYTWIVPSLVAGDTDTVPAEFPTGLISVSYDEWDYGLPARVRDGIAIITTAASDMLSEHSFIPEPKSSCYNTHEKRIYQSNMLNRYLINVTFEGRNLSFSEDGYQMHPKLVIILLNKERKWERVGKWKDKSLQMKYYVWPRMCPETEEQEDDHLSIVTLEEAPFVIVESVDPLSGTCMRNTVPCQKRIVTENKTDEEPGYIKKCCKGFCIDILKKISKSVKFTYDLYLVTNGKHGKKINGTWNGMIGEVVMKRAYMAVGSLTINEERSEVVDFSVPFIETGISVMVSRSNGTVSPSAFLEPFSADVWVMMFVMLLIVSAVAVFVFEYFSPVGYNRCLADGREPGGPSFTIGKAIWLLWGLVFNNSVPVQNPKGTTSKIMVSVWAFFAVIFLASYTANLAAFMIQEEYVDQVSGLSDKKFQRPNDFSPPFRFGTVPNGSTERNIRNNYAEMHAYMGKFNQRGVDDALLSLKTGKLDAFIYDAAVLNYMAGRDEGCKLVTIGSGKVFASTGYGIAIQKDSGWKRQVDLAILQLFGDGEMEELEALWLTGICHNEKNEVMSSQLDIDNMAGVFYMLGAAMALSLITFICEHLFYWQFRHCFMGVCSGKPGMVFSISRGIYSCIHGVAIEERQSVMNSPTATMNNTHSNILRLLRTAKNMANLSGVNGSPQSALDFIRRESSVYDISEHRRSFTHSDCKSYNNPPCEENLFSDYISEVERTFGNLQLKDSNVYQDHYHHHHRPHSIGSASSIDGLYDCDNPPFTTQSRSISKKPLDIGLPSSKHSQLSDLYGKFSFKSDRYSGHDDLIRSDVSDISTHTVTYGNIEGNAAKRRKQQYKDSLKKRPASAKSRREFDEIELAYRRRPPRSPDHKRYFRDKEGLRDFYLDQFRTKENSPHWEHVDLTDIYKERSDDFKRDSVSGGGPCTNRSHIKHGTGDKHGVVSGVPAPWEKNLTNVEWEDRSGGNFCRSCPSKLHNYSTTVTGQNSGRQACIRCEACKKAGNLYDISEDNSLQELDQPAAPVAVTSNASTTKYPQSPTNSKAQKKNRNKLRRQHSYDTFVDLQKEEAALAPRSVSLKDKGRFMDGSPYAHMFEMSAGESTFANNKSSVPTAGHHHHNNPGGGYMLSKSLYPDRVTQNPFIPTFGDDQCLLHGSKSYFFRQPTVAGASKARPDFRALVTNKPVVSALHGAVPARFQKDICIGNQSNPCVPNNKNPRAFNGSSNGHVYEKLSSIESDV
T3 sequence (Q13224 27-1484, other chains not shown): as above
T2 sequence (Q12879 23-1464, other chains not shown): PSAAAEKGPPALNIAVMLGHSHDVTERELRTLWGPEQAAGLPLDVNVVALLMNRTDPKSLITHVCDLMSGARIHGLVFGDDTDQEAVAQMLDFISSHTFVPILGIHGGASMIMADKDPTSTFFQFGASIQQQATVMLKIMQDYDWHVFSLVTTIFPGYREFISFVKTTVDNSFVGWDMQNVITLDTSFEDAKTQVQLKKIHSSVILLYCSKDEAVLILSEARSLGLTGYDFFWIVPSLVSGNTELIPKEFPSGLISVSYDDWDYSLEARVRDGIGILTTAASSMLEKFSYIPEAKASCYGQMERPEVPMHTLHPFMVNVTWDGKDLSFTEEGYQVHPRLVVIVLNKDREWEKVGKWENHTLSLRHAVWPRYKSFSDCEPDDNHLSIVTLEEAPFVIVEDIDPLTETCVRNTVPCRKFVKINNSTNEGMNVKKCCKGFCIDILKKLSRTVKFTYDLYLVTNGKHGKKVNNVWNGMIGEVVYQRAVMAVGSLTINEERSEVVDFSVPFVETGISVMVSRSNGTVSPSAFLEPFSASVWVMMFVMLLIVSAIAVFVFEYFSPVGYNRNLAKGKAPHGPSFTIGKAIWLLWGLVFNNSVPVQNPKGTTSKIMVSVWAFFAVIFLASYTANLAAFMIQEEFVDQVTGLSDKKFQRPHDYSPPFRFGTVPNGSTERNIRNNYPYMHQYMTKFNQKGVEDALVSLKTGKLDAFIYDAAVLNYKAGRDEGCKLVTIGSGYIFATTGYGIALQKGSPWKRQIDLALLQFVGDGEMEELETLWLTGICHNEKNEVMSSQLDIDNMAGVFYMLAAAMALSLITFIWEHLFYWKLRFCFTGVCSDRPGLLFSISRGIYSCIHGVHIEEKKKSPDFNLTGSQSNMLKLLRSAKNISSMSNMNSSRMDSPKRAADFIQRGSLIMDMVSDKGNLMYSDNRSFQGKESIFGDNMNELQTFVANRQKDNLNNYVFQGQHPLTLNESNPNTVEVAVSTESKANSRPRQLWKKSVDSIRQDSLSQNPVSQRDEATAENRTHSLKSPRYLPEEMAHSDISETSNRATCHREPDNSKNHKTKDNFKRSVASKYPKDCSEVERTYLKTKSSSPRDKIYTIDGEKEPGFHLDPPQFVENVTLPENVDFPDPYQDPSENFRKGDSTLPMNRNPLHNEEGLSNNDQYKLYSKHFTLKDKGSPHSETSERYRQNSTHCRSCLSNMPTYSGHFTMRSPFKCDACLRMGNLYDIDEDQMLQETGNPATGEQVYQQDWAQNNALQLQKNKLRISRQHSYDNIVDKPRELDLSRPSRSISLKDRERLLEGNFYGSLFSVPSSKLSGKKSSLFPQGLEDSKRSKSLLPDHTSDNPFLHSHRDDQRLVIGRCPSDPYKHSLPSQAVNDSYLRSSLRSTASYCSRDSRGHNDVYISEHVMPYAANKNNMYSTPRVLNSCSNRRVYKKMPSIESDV

| EC50 [1] | NMDAR2A A: % maximal [3H]MK-801 binding relative to 1 mM glycine [2] | NMDAR2B A: % maximal [3H]MK-801 binding relative to 1 mM glycine [3] | NMDAR2B B: log EC50 [3] | Emax [1] | EC50 [5] | Emax [5] | NMDAR2A B: log EC50 [2] | SMILES | further results |
| --- | --- | --- | --- | --- | --- | --- | --- | --- | --- |
| < 1 nM | + (<100%=+) | − (−=0) | − |  |  |  |  | CC1CC(=O)N(c2ccc(F)cc2)C12CN([C@H](C(N)=O)[C@@H](C)O)C2=O (single isomer, unassigned) [DL] |  |
| < 1 nM |  |  |  | < 100% | < 1 nM | < 100% |  | COc1ccc(CN2CC3(CCN(C)C(=O)C3)C2=O)cc1 (single isomer, unassigned) [CI, 2-(4-methoxybenzyl)-7-methyl-2,7-diazaspiro[3.5]nonane-1,6-dione] | AUC(0-t) [4]: 5060 ng·h/mL; bioavailability [4]: 97%; Tmax [4]: 15 min; Cmax [4]: 5050 ng/mL; CSF Cmax [4]: 1113.94 ng/mL; Brain Cmax [4]: 996.66 ng/mL; AUC(0-t) (IV pharmacokinetics): 1040 ng·h/mL; C0 (IV pharmacokinetics): 2120 ng/mL; clearance (IV pharmacokinetics): 32 mL/min/kg; half-life (IV pharmacokinetics): 25.2 min; Vd (IV pharmacokinetics): 0.91 L/kg |
|  |  |  | − | 0% |  | 0% | − | CNC(=O)[C@H]([C@@H](C)O)N1CC2(CCNC(=O)C2)C1=O (stereo partly drawn) [DA, (2S,3R)-2-(1,6-dioxo-2,7-diazaspiro[3.5]nonan-2-yl)-3-hydroxy-N-methylbutanamide] |  |
|  |  |  | − | 0% |  | 0% | − | CCN1CCC2(CC1=O)CN(Cc1ccc(OC)cc1)C2=O (stereo not drawn) [CK, 7-ethyl-2-(4-methoxybenzyl)-2,7-diazaspiro[3.5]nonane-1,6-dione] |  |
| < 1 nM |  |  |  | < 100% | < 1 nM | < 100% |  | CCN1CCC2(CC1=O)CN(Cc1ccc(OC)cc1)C2=O (single isomer, unassigned) [CL, 7-ethyl-2-(4-methoxybenzyl)-2,7-diazaspiro[3.5]nonane-1,6-dione] | AUC(0-t) [4]: 1430 ng·h/mL; bioavailability [4]: 37%; Tmax [4]: 15 min; Cmax [4]: 1800 ng/mL; CSF Cmax [4]: 866.42 ng/mL; Brain Cmax [4]: 707.6 ng/mL; AUC(0-t) (IV pharmacokinetics): 772 ng·h/mL; C0 (IV pharmacokinetics): 2690 ng/mL; clearance (IV pharmacokinetics): 41.7 mL/min/kg; half-life (IV pharmacokinetics): 12.6 min; Vd (IV pharmacokinetics): 0.7 L/kg |
|  |  |  | − | 0% |  | 0% | − | COc1ccc(CN2CC3(CCNC(=S)C3)C2=O)cc1 (single isomer, unassigned) [CM, 2-(4-methoxybenzyl)-6-thioxo-2,7-diazaspiro[3.5]nonan-1-one] |  |
|  | + (<100%=+) | ++ (>100%=++) |  |  | < 1 nM |  |  | CN1CC2(CCNC(=O)C2)C1=O (single isomer, unassigned) [DH, 2-methyl-2,7-diazaspiro[3.5]nonane-1,6-dione] | EC50 [2]: < 1 nM |
|  | + (<100%=+) | + (<100%=+) |  |  | < 1 nM |  |  | COc1ccc(CN2CC3(CCNC(=S)C3)C2=S)cc1 (single isomer, unassigned) [CP, 2-(4-methoxybenzyl)-2,7-diazaspiro[3.5]nonane-1,6-dithione] | EC50 [2]: < 1 nM |
| < 1 nM | + (<100%=+) | + (<100%=+) |  |  |  |  |  | O=C1CC2(CCN1)CN(Cc1ccccc1)C2=O (single isomer, unassigned) [CV, 2-benzyl-2,7-diazaspiro[3.5]nonane-1,6-dione] | EC50 [3]: < 1 nM |

Further lines, the compound ahead of its results:

| SMILES | EC50 [1] | NMDAR2A A: % maximal [3H]MK-801 binding relative to 1 mM glycine [2] | NMDAR2B A: % maximal [3H]MK-801 binding relative to 1 mM glycine [3] | NMDAR2B B: log EC50 [3] | Emax [1] | EC50 [5] | Emax [5] | NMDAR2A B: log EC50 [2] | further results |
| --- | --- | --- | --- | --- | --- | --- | --- | --- | --- |
| CC1C(N)C(=O)N(C)C12CN(Cc1ccccc1)C2=O (stereo not drawn) [CH, 7-amino-2-benzyl-5,8-dimethyl-2,5-diazaspiro[3.4]octane-1,6-dione] |  |  |  | − | 0% |  | 0% | − |  |
| C[C@@H](O)[C@@H](C(=O)NCc1ccccc1)N1CC2(CCNC(=O)C2)C1=O (stereo partly drawn) [CA, (2S,3R)—N-benzyl-2-(1,6-dioxo-2,7-diazaspiro[3.5]nonan-2-yl)-3-hydroxybutanamide] |  |  |  | − | 0% |  | 0% | − |  |
| CC1CC(=O)N(c2ccc(F)cc2)C12CN(CC(N)=O)C2=O (stereo not drawn) [CE, 2-(5-(4-fluorophenyl)-8-methyl-1,6-dioxo-2,5-diazaspiro[3.4]octan-2-yl)acetamide] |  |  |  | − | 0% |  | 0% | − |  |
| CC1CC(=O)N(c2ccc(F)cc2)C12CN(Cc1ccccc1)C2=O (stereo not drawn) [BY, 2-benzyl-5-(4-fluorophenyl)-8-methyl-2,5-diazaspiro[3.4]octane-1,6-dione] |  |  |  | − | 0% |  | 0% | − |  |
| C[C@@H](O)[C@@H](C(=O)NCc1ccccc1)N1CC2(CCNC(=O)C2)C1=O (single isomer, unassigned) [CB] |  |  |  |  | 0% | < 1 nM | < 100% | − | AUC(0-t) [4]: 297 ng·h/mL; bioavailability [4]: 5%; Tmax [4]: 30 min; Cmax [4]: 143 ng/mL; CSF Cmax [4]: 31.02 ng/mL; Brain Cmax [4]: 7.38 ng/mL; AUC(0-t) (IV pharmacokinetics): 1320 ng·h/mL; C0 (IV pharmacokinetics): 4320 ng/mL; clearance (IV pharmacokinetics): 25.3 mL/min/kg; half-life (IV pharmacokinetics): 106 min; Vd (IV pharmacokinetics): 1.2 L/kg |
| C[C@@H](O)[C@@H](C(=O)N(C)C)N1CC2(CCNC(=O)C2)C1=O (single isomer, unassigned) [CD] | < 1 nM | + (<100%=+) | + (<100%=+) |  |  |  |  |  | EC50 [3]: < 1 nM |
| C[C@@H](O)[C@@H](C(=O)N(C)C)N1CC2(CCNC(=O)C2)C1=O (single isomer, unassigned) [CC] |  | − (−=0) |  |  |  | < 1 nM | < 100% | − | AUC(0-t) [4]: 701 ng·h/mL; bioavailability [4]: 7%; Tmax [4]: 25.2 min; Cmax [4]: 191 ng/mL; CSF Cmax [4]: 0 ng/mL; Brain Cmax [4]: 0 ng/mL; AUC(0-t) (IV pharmacokinetics): 2130 ng·h/mL; C0 (IV pharmacokinetics): 7930 ng/mL; clearance (IV pharmacokinetics): 15.7 mL/min/kg; half-life (IV pharmacokinetics): 127 min; Vd (IV pharmacokinetics): 0.5 L/kg |
